Data reported in PubChem BioAssay (NCI).
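Five compound concentrations were applied to cells in 96-well plates for 48 hours; endpoints were derived by simple linear interpolation of the resulting dose-response curve. The concentration for 50% growth inhibition is given as GI50. Definition used: TGI = concentration required for complete inhibition of growth.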

How the values were obtained:
Experiment in all cases: growth of human tumour cells (NCI), 48 h
[1] = tested on: MDA-MB-231 breast
[2] = tested on: HCT-116 colon
[3] = tested on: SN12C renal
[4] = tested on: SNB-75 CNS
[5] = tested on: MOLT-4 leukemia
[6] = tested on: HOP-92 NSCLC
[7] = tested on: T-47D breast
[8] = tested on: RXF 393 renal
[9] = tested on: CAKI-1 renal
[10] = tested on: UACC-62 melanoma

SMILES | GI50 [1] [µM] | TGI [1] [µM] | GI50 [2] [µM] | TGI [2] [µM] | GI50 [3] [µM] | TGI [3] [µM] | GI50 [4] [µM] | TGI [4] [µM] | GI50 [5] [µM] | TGI [5] [µM] | GI50 [6] [µM] | TGI [6] [µM] | GI50 [7] [µM] | TGI [7] [µM] | GI50 [8] [µM] | TGI [8] [µM] | GI50 [9] [µM] | TGI [9] [µM] | GI50 [10] [µM] | TGI [10] [µM]
COc1ccc(C(=O)COc2cccc(/C=C3\COc4ccc5ccccc5c4C3=O)c2)cc1 | 6.97 | > 100 | 4.21 | > 100 | 4.46 | > 100 | 2.39 | 11.6 | 2.86 | 18.9 | 0.786 | 8.14 | 3.88 | > 100 | 9.8 | > 100 | 8.24 | 78.3 | 16.3 | > 100
CCN(CC)c1sc(N(CC)CC)c2c1SSSSS2 | 0.894 | 2.41 | 0.356 | 1.14 | 0.315 | 0.866 | 2.71 | 4.52 | 0.343 | > 100 | 2.87 | 5.92 | 3.17 | > 100 | 1.59 |  | 1.49 | 3.78 | 0.721 | 1.87
CCN1C(=O)CNc2ncc(-c3ccc(-c4ncn[nH]4)nc3C)nc21 | 0.127 | 3.33 | 0.277 | 4.62 | 0.168 | 14.9 | 0.0369 | 0.321 | 0.139 | 1.54 | 0.0212 | 0.168 | 0.0169 | 0.185 | 0.0476 | 0.371 | 0.0441 | 0.576 | 0.0777 | 0.587
COc1ccc(OC)c(/C=C/C(=O)N/N=C/c2ccc(Cl)cc2)c1 | 0.531 | > 100 | 0.0571 |  | 0.488 | > 100 | 0.0537 | 0.674 | 0.213 | > 100 | 9.27 | 75.2 | 0.0786 | > 65.8 | 0.0363 | 0.268 | 0.0786 | > 100 | 0.058 | > 100
CCC#CC[C@H]1C/C=C2/C(=O)C=C[C@@H]2C/C=C\CCCC(=O)O1 | 1.85 | 9.28 | 0.43 | 2.61 | 0.954 | 2.78 | 4.38 | 10.8 | 1.24 | 3.96 | 1.94 | 6.33 | 1.35 | 10.2 | 0.945 | 1.96 | 0.935 | 2.1 | 0.559 | 1.8
C[N+](C)(C)CC1CCCC(C[N+](C)(C)C)C1=O (stereo not drawn) |  | 3.58 |  | 2.23 |  | 1.5 |  | 14.5 |  | 3.85 |  | 1.17 |  | 3.33 |  | 3.18 |  | 1.48 |  | 10.9
COc1cc2oc(-c3ccc(O)cc3)cc(=O)c2c(OC)c1OC |  | > 100 |  | > 100 |  | > 100 |  | > 100 |  | > 100 |  | > 100 |  | > 100 |  | > 100 |  | > 100 |  | > 100
CC(=O)OC1CC(O)C23COC(O)C1(C)C2CC(O)C1(C)C3C(=O)C(O)C2(C)C(c3ccoc3)CC3OC321 (stereo not drawn) | > 28.7 | > 100 | < 0.01 | > 100 | > 100 | > 100 | < 0.0397 | > 100 | < 0.01 | 0.0127 | 0.911 | > 100 | 0.151 | > 100 | > 100 | > 100 | 2.97 | > 100 | < 0.01 | < 0.0129
